According to US6858638B2, “Substituted indazoles, compositions containing them, method of production and use” (Aventis Pharma S.A., priority 2002, dated 2005):

Target: CDK2/cyclinE kinase (Homo sapiens, UniProt P24941)
Experiment: CDK2/cyclinE kinase phosphorylation of Rb-biotinylated peptide, scintillation plates
Assay type: biochemical
Settings: read-out: CDK2 % inhib at 10 μM
Protocol: The inhibition of the CDK2/cyclinE kinase is evaluated by measuring the phosphorylation of the peptide substrate Rb-biotinylated, detected by […], in 96-well scintillation plates (Flashplates) coated with streptavidin.
Each point is assayed in duplicate.
Sequence of the Rb-biotinylated peptide: Biotin-[…]-OH
Protocol: • 1. Preparation of the substrate: fresh solution at 1 mg/ml in PBS. • 2. Introduce 4 μg per well into the scintillation plate. • 3. Incubate for 2 hours at ambient temperature. • 4. Prepare series of dilutions at 1 mM, 300 μM, 100 μM, 30 μM and 10 μM in DMSO from a stock solution of inhibitor at 10 mM in DMSO. • 5. Wash the scintillation plate with 3 times 300 μl of PBS to remove the unbound peptide substrate. • 6. Add the CDK2/cyclinE kinase: 200 ng per well, in 90 μl of kinase buffer (with the exception of the “without enzyme” control wells). • 7. Add the test inhibitor to each of the wells, at a final concentration for 100 μl of 10 μM, 3 μM, 1 μM, 0.3 μM and 0.1 μM. • 8. Agitate the scintillation plate gently for 1 minute. • 9. Incubate for 30 minutes on ice. • 10. Initiate the reaction with 10 μl of kinase buffer having a final concentration per well of 1 μM of cold ATP and of 1 μCi of ATP-^33P. • 11. […] Indirect measurement of the radioactivity corresponding to the incorporation of ATP-^33P, originating from the kinase, into the phosphorylation site of Rb. […]

Row | Structure (SMILES) | inhibition at 10 µM
1 | Nc1n[nH]c2ccc(NS(=O)(=O)c3cccc(F)c3)cc12 [Example 26, N-(3-Amino-1H-indazol-5-yl)-3-fluorobenzenesulfonamide] | 39%
2 | CS(=O)(=O)c1ccccc1S(=O)(=O)Nc1ccc2[nH]nc(-c3ccc(Cl)cc3)c2c1 [Example 30, N-[3-(4-Chlorophenyl)-1H-indazol-5-yl]-2-methylsulfonylbenzenesulfonamide] | 73%
